According to patent publication EP0929544B1, “TRICYCLIC ANTITUMOR COMPOUNDS BEING FARNESYL PROTEIN TRANSFERASE INHIBITORS” (SCHERING CORPORATION, priority 1996, dated 1998):
Read-outs that look alike come from different tables or passages of the source.

Key:
[1] = biological target: T1, Farnesyl protein transferase (FPT) (Rattus norvegicus, UniProt Q02293+Q04631); experiment: In vitro enzyme assay: inhibition of farnesyl protein transferase (transfer of [3H]farnesyl from [3H]farnesyl pyrophosphate to Ras-CVLS); format: biochemical; conditions: for IC50: FPT INHIBITION, read-out: FPT IC50
T1 construct: Farnesyl protein transferase (FPT) was partially purified from rat brain; from tissue; host or cells: rat brain
From the text: 1. In vitro enzyme assays: Inhibition of farnesyl protein transferase and geranylgeranyl protein transferase.
Farnesyl protein transferase (FPT) was partially purified from rat brain by ammonium sulfate fractionation followed by Q-Sepharose (Pharmacia, Inc.) anion exchange chromatography essentially as described by Yokoyama et al (Yokoyama, K., et al., (1991), A protein geranylgeranyltransferase from bovine brain: Implications for protein prenylation specificity, Proc. Natl. Acad. Sci USA 88: 5302-5306, the disclosure of which is incorporated herein by reference thereto). Human famesyl protein transferase was also expressed in E. coli, using cDNA clones encoding both the a and b subunits. The methods used were similar to those published (Omer, C. et al., (1993), Characterization of recombinant human farnesyl protein transferase: Cloning, expression, famesyl diphosphate binding, and functional homology with yeast prenyl-protein transferases, Biochemistry 32:5167-5176). Human famesyl protein transferase was partially-purified from the soluble protein fraction of E. coli as described above. […] Two forms of val^12-Ha-Ras protein were prepared as substrates for these enzymes, differing in their carboxy terminal sequence. One form terminated in cysteine-valine-leucine-serine (Ras-CVLS) the other in cystein-valine-leucine-leucine (Ras-CVLL). Ras-CVLS is a substrate for the famesyl protein transferase while Ras-CVLL is a substrate for geranylgeranyl protein transferase I. The cDNAs encoding these proteins were constructed so that the proteins contain an amino-terminal extension of 6 histidine residues. Both proteins were expressed in Escherichia coli and purified using metal chelate affinity chromatography. The radiolabelled isoprenyl pyrophosphate substrates, [^3H]farnesyl pyrophosphate and [^3H]geranylgeranyl pyrophosphate, were purchased from DuPont/New England Nuclear.
Several methods for measuring famesyl protein transferase activity have been described (Reiss et al 1990, Cell 62: 81; Schaber et al 1990, J. Biol. Chem. 265: 14701; Manne et al 1990, PNAS 87: 7541; and Barbacid & Manne 1993, U.S. Patent No. 5,185,248). […] The reaction was allowed to proceed for 30 minutes at room temperature and then stopped with 0.5 ml of 4% sodium dodecyl sulfate (SDS) followed by 0.5 ml of cold 30% TCA. Samples were allowed to sit on ice for 45 minutes and precipitated Ras protein was then collected on GF/C filter paper mats using a Brandel cell harvester. Filter mats were washed once with 6% TCA, 2% SDS and radioactivity was measured in a Wallac 1204 Betaplate BS liquid scintillation counter. Percent inhibition was calculated relative to the DMSO vehicle control.

[2] = test system: Ras processing in COS monkey kidney cells; experiment: Cell-based assay: transient expression of val12-Ha-Ras-CVLS in COS cells, effect on Ras processing (immunoblot); conditions: Primates, read-out: INHIBITION OF RAS PROCESSING IC50
From the text: 2. Cell-Based Assay: Transient expression of val^12-Ha-Ras-CVLS and val^12-Ha-Ras-CVLL in COS monkey kidney cells: Effect of famesyl protein transferase inhibitors on Ras processing and on disordered cell growth induced by transforming Ras.
COS monkey kidney cells were transfected by electroporation with the plasmid pSV-SPORT (Gibco/BRL) containing a cDNA insert encoding either Ras-CVLS or Ras-CVLL, leading to transient overexpression of a Ras substrate for either famesyl protein transferase or geranylgeranyl protein transferase I, respectively (see above).
Following electroporation, cells were plated into 6-well tissue culture dishes containing 1.5 ml of Dulbecco's-modified Eagle's media (GIBCO, Inc.) supplemented with 10% fetal calf serum and the appropriate famesyl protein transferase inhibitors. After 24 hours, media was removed and fresh media containing the appropriate drugs was re-added.
48 hours after electroporation cells were examined under the microscope to monitor disordered cell growth induced by transforming Ras. Cells expressing transforming Ras become more rounded and refractile and overgrow the monolayer, reminiscent of the transformed phenotype. Cells were then photographed, washed twice with 1 ml of cold phosphate-buffered saline (PBS) and removed from the dish by scraping with a rubber policeman into 1 ml of a buffer containing 25 mM Tris, pH 8.0; 1 mM ethylenediamine tetraacetic acid; 1 mM phenylmethylsulfonyl fluoride; […]; and 0.1 mM pepstatin. Cells were lysed by homogenization and cell debris was removed by centrifugation at 2000 × g for 10 min.
Cellular protein was precipitated by addition of ice-cold trichloroacetic acid and redissolved in […] of SDS-electrophoresis sample buffer. Samples ([…]) were loaded onto 14% polyacrylamide minigels (Novex, Inc.) and electrophoresed until the tracking dye neared the bottom of the gel. Proteins resolved on the gels were electroblotted onto nitrocellulose membranes for immunodetection.
Membranes were blocked by incubation overnight at 4°C in PBS containing 2.5% dried milk and 0.5% Tween-20 and then incubated with a Ras-specific monoclonal antibody, Y13-259 (Furth, M.E., et al., (1982), Monoclonal antibodies to the p21 products of the transforming gene of Harvey murine sarcome virus and of the cellular ras gene family, J. Virol. 43: 294-304), in PBS containing 1% fetal calf serum for one hour at room temperature. After washing, membranes were incubated for one hour at room temperature with a 1:5000 dilution of secondary antibody, rabbit anti-rat IgG conjugated to horseradish peroxidase, in PBS containing 1% fetal calf serum. The presence of processed and unprocessed Ras-CVLS or Ras-CVLL was detected using a colorimetric peroxidase reagent (4-chloro-1-naphthol) as described by the manufacturer (Bio-Rad).

T1 sequence (Q02293 whole entry, one chain of several): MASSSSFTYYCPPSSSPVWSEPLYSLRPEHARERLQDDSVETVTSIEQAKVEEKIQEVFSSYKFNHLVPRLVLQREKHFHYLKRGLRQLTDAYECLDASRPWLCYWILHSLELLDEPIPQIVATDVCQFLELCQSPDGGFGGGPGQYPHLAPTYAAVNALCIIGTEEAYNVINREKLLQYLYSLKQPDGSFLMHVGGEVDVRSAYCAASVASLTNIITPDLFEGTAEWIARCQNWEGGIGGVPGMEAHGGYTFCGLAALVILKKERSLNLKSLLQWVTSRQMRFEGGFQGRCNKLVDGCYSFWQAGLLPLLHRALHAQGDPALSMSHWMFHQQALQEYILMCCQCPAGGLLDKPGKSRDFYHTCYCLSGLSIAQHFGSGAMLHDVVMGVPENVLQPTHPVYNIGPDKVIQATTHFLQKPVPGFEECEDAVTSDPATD

Row | SMILES | IC50 [1] [nM] | inhibition at 0.093 µM ([1]; @ 93 nM, read-out: FPT inhibition (percent inhibition)) [%] | IC50 ([2]; ACTIVITY IN COS CELLS) [nM] | IC50 ([2]; COS) [nM]
1 | O=C(CN1CCCC1=O)N1CCC(C2c3ncc(Br)cc3CCc3cc(Cl)cc(Cl)c32)CC1 (single isomer, unassigned) [Example 10] | 19 | – | 500 | –
2 | CN(C)C(=O)CCC(=O)N1CCC(C2c3ncc(Br)cc3CCc3cc(Cl)cc(Cl)c32)CC1 (single isomer, unassigned) [Example 13] | 15 | – | 200 | –
3 | CN(C)CCCC(=O)N1CCC(C2c3ncc(Br)cc3CCc3cc(Cl)cc(Br)c32)CC1 (single isomer, unassigned; (+)) [Example 2, (+)-4-(3,10-DIBROMO-8-CHLORO-6,11-DIHYDRO-5H-BENZO[5,6]CYCLO-HEPTA[1,2-b]PYRIDIN-11-YL)-1-[4-(DIMETHYLAMINO)-1-OXOBUTYL]PIPERIDINE] | 4 | – | 13 | –
4 | O=C(O)CCCCCC(=O)N1CCC([C@H]2c3ncc(Br)cc3CCc3cc(Cl)cc(Br)c32)CC1 [Example 58, (+)-SODIUM 4-(3,10-DIBROMO-8-CHLORO-6,11-DIHYDRO-5H-BENZO[5,6]CYCLO-HEPTA[1,2-b]PYRIDIN-11(R)-YL)-OMEGA-OXO -1-PIPERIDININE HEPTANOATE] | 9.1 | – | – | 300

More lines, main results first:

Row | IC50 [1] [nM] | inhibition at 0.093 µM ([1]; @ 93 nM, read-out: FPT inhibition (percent inhibition)) [%] | SMILES | IC50 ([2]; ACTIVITY IN COS CELLS) [nM] | IC50 ([2]; COS) [nM]
5 | 16 | – | O=C(CCC(=O)N1CCC(C2c3ncc(Br)cc3CCc3cc(Cl)cc(Cl)c32)CC1)N1CCCC1 (single isomer, unassigned) [Example 14] | 250 | –
6 | – | 9 | O=C(NCCCC(=O)N1CCC(C2c3ncc(Br)cc3CCc3cc(Cl)cc(Cl)c32)CC1)c1cccnc1 (single isomer, unassigned) [Example 18] | 540 | –
